Values quoted from earlier work, collected in US9498424B2, “Active mixtures of acylated oligopeptides and troxerutin” (Symrise AG, priority 2013, dated 2016).

System: mice

Q: Which CNS insulin resistance does the source give for C[C@@H]1O[C@@H](OC[C@H]2O[C@@H](Oc3c(-c4ccc(OCCO)c(OCCO)c4)oc4cc(OCCO)cc(O)c4c3=O)[C@H](O)[C@@H](O)[C@@H]2O)[C@H](O)[C@H](O)[C@H]1O [Troxerutin] here?
A: The CNS insulin resistance was “reverse CNS insulin resistance”.

Q: And the “reactive oxygen species induced by a high-cholesterol diet” value?
A: The value was “reduce reactive oxygen species”.
